Test results published in patent US7642059B2, “Single receptor assays for immunosuppressive drugs” (Roche Diagnostics Operations, Inc., priority 2005, dated 2010).

What was measured:
FKBP25 [1] = biological target: T1, FKBP25 (Homo sapiens, UniProt Q00688); conditions: FKBP25, rotamase assay; cited from earlier work
T1 sequence (Q00688 1-224): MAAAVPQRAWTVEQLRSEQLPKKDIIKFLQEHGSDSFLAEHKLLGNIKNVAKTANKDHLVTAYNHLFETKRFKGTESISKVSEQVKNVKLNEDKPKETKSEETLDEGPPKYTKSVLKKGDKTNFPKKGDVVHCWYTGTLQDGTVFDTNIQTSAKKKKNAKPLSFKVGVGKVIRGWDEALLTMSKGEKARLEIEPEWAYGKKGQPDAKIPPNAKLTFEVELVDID

FKBP14 = conditions: cited from earlier work
FKBP25 [2] = biological target: T1, FKBP25; assay: FKBP25 microparticle / rapamycin-aminodextran agglutination assay (cross-reactivity); type: binding
Protocol: A first working reagent (R1 reagent) was prepared by making 175 mM PIPES buffer, pH 7.4. To this was added rapamycin-aminodextran conjugate to give a concentration of 400 ng/mL. To this was also added polyacrylic acid to give a concentration of 1.3%.
A second working reagent (R2 reagent) was prepared as described in Example 12 and used at final concentration of 0.14% (w/v) in 50 mM MOPS buffer at pH 7.9.
A stock solution of rapamycin was made (100 μg/mL) in DMSO. Calibrators were prepared from the stock by making solution of 50, 100 and 200 ng/mL of rapamycin in 0.9% saline solution.
An assay was performed using a Hitachi 917 automated analyzer (Roche Diagnostics Corporation, Indianapolis) using a 35 μL sample volume, 180 μL of the first working reagent and 80 μL of the second working reagent (measured OD at 800 nm).
Known quantities of tacrolimus were then assayed as above. By comparing the observed reading from the rapamycin curve obtained to the actual amount of tacrolimus in the samples assayed, tacrolimus cross-reactivity was determined to be 7% in this assay. That is, a sample containing 1000 ng/ml tacrolimus gave a reading from the curve of 70 ng/ml rapamycin. Cross-reactivity is thus (70/1000)×100%=7%.

| Structure (SMILES) | Ki (FKBP25 [1]) [nM] | Kd (FKBP14) [nM] | fold lower Kd for tacrolimus than sirolimus (FKBP14) | cross-reactivity (FKBP25 [2]; read from rapamycin curve, Hitachi 917, OD at 800 nm) [%] | reading from the curve as rapamycin (FKBP25 [2]; sample containing 1000 ng/ml tacrolimus) [ng/mL] |
| --- | --- | --- | --- | --- | --- |
| C=CC[C@@H]1/C=C(\C)C[C@H](C)C[C@H](OC)[C@H]2O[C@@](O)(C(=O)C(=O)N3CCCC[C@H]3C(=O)O[C@H](/C(C)=C/[C@@H]3CC[C@@H](O)[C@H](OC)C3)[C@H](C)[C@@H](O)CC1=O)[C@H](C)C[C@@H]2OC [tacrolimus] | 200 | 1.8 | about 20 fold | 7 | 70 |
| CO[C@H]1C[C@@H]2CC[C@@H](C)[C@@](O)(O2)C(=O)C(=O)N2CCCC[C@H]2C(=O)O[C@H]([C@H](C)C[C@@H]2CC[C@@H](O)[C@H](OC)C2)CC(=O)[C@H](C)/C=C(\C)[C@@H](O)[C@@H](OC)C(=O)[C@H](C)C[C@H](C)/C=C/C=C/C=C/1C [rapamycin] | 0.9 |  |  |  |  |
